In patent US9975849B1, “Gossypol l-arginine schiff base compound with antitumor activities and a method of preparing the same” (SHAANXI PANLONG PHARMACEUTICAL GROUP LIMITED BY SHARE LTD., priority 2017, dated 2018):
Where two headings read alike, the source gives them in different places.

What was measured:
Assay type in all cases: cell-based
[1] = tested on: human hepatoma cells (HepG2); assay: MTT tumor cell proliferation inhibition test, HepG2; settings: for IC50: Homo sapiens, read-out: Half Inhibitory Concentration IC50 HepG2
Procedure: (§1) The compounds of the present invention were subjected to tumor cell proliferation inhibition test, and conventional MTT method was used.
(§2) Cell lines: human hepatoma cells (HepG2), human lung cancer cells (A-549), human gastric cancer cells (SGC-7901). The culture medium was DMEM+15% NBS+double antibody.
(§3) Sample solution preparation: after dissolving with DMSO (Merck), PBS (-) was added to obtain 100 μmol/L solution or homogeneous suspension. The solution was diluted with PBS (-) in DMSO to a final concentration of 0.1, 1, 10, 20, 40, 60, 80, 100 μmol/L.
(§4) Anti-uterine fibroids drug gossypol was used as control solution, prepared under the same condition.
(§5) Cell culture: adherent growth Tumor cells were cultured in 1640 medium containing 10% inactivated neonatal bovine serum and penicillin, streptomycin (1 million U/L), placed in carbon dioxide incubator at 37° C., 5% CO2, and saturated humidity. Cells were treated serially passaged 2-3 times. The first culture was washed with PBS 2 times, and digested with trypsin. Fresh culture medium was added evenly, cells were adjusted to a appropriate concentration and transferred into a new culture flask. […]
(§6) Experimental Principle: Living cells mitochondria in the dehydrogenase can reduce yellow MTT to water-insoluble blue-violet product MT (MTT formazan), deposited in the cells. […] DMSO can dissolve blue violet crystals, and the color depth is proportional to the amount contained, so the absorbance measured by the microplate reader can reflect the cell viability.
(§7) Methods: The exponential phase cells were digested and counted and seeded in 96-well plates at a density of 2×10^4/mL at 100 μl per well. […] After 48 hours, the supernatant was discarded, and 100 μl of MTT ((2-(4,5-dimethyl-2-thiazolyl)-3,5-diphenyl-2H-[…]) (1 mg/mL) was added to each well. After another 4 hours, the supernatant was discarded, and 100 μl of DMSO was added to each well. After mixing, the absorbance was measured at 570 nm using a microplate reader. An IC50 calculation software was used to determine the half inhibitory concentration (IC50).

[2] = tested on: human gastric cancer cells (SGC-7901); assay: MTT tumor cell proliferation inhibition test, SGC-7901; settings: for IC50: Homo sapiens, read-out: Half Inhibitory Concentration IC50 SGC-7901
Procedure: as §1, §2, §3, §4
Cell culture: adherent growth Tumor cells were cultured in 1640 medium containing 10% inactivated neonatal bovine serum and penicillin, streptomycin (1 million U/L), placed in carbon dioxide incubator at 37° C., 5% CO2, and saturated humidity. Cells were treated serially passaged 2-3 times. The first culture was washed with PBS 2 times, and digested with trypsin. Fresh culture medium was added evenly, cells were adjusted to a appropriate concentration and transferred into a new culture flask. Cell in an exponential phase were chosen for the tests.
MTT Assay for Cell Viability and IC50 Determination:
Experimental Principle: Living cells mitochondria in the dehydrogenase can reduce yellow MTT to water-insoluble blue-violet product MT (MTT formazan), deposited in the cells. The amount of production is proportional to the number of living cells. […] DMSO can dissolve blue violet crystals, and the color depth is proportional to the amount contained, so the absorbance measured by the microplate reader can reflect the cell viability.
Methods: The exponential phase cells were digested and counted and seeded in 96-well plates at a density of 2×10^4/mL at 100 μl per well. After 24 hours of incubation, the cells to be tested were treated with 0.1, 1, 10, 20, 40, 60, 80, 100 μmol/L of the compounds. Each experimental group had 5 wells in each concentration, and the culture medium containing 0.4% DMSO was used as control. After 48 hours, the supernatant was discarded, and 100 μl of MTT ((2-(4,5-dimethyl-2-thiazolyl)-3,5-diphenyl-2H-[…]) (1 mg/mL) was added to each well. After another 4 hours, the supernatant was discarded, and 100 μl of DMSO was added to each well. After mixing, the absorbance was measured at 570 nm using a microplate reader. An IC50 calculation software was used to determine the half inhibitory concentration (IC50).

[3] = tested on: human lung cancer cells (A-549); assay: MTT tumor cell proliferation inhibition test, A-549
Procedure: as §1, §2, §3, §4, §5, §6, §7

Structure (SMILES) | antitumor activities (in words) ([1]; HepG2, one of the three cell lines tested) | IC50 ([1]; MTT, 48 hours treatment, HepG2) [µM] | IC50 ([2]; MTT, 48 hours treatment, SGC-7901) [µM] | antitumor activities (in words) ([2]; SGC-7901, one of the three cell lines tested) | antitumor activities compared with gossypol ([2]; against SCG-7901) | antitumor activities (in words) ([3]; A549, one of the three cell lines tested) | IC50 ([3]; Homo sapiens, MTT, 48 hours treatment, A549, read-out: Half Inhibitory Concentration IC50 A549) [µM] | antitumor activities compared with gossypol ([3]; against A549) | IC50 ([1]; HepG2, 48 h) [µM] | IC50 ([2]; SGC-7901, 48 h) [µM]
Cc1cc2c(C(C)C)c(O)c(O)c(/C=N\C(=N)NCCC[C@H](N)C(=O)O)c2c(O)c1-c1c(C)cc2c(C(C)C)c(O)c(O)c(/C=N/C(=N)NCCC[C@H](N)C(=O)O)c2c1O [Gossypol L-arginine Schiff base compound, gossypol L-arginine Schiff base compound] | excellent antitumor activities | 11.7 ± 0.32 | 9.37 ± 0.36 | excellent antitumor activities | better antitumor activities than gossypol | excellent antitumor activities | 12.3 ± 0.69 | better antitumor activities than gossypol |  | 
Cc1cc2c(C(C)C)c(O)c(O)c(C=O)c2c(O)c1-c1c(C)cc2c(C(C)C)c(O)c(O)c(C=O)c2c1O [Gossypol, gossypol] |  |  |  |  |  |  |  |  | 8.29 ± 0.28 | 18.2 ± 0.37
